Data as given in PMC6934184, “Selective DNA-PKcs inhibition extends the therapeutic index of localized radiotherapy and chemotherapy” (The Journal of Clinical Investigation, 2019).

Molecular target: T1, MAPK9 (JNK2) (Homo sapiens, UniProt P45984)
T1 construct: purchased Thermo Fisher Scientific (Life Technologies) SelectScreen
Experiment: SelectScreen Z'LYTE
Format: biochemical
Conditions: ATP 100 µM
How it was run: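 NU5455 was profiled across the SelectScreen Broad panel of kinase activity and binding assays. Z'LYTE reactions such as CSF1R ran at apparent Km ATP, while the Adapta CAMK1 assay used ATP listed as 10. Values are given as percent.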

T1 sequence (P45984 whole entry): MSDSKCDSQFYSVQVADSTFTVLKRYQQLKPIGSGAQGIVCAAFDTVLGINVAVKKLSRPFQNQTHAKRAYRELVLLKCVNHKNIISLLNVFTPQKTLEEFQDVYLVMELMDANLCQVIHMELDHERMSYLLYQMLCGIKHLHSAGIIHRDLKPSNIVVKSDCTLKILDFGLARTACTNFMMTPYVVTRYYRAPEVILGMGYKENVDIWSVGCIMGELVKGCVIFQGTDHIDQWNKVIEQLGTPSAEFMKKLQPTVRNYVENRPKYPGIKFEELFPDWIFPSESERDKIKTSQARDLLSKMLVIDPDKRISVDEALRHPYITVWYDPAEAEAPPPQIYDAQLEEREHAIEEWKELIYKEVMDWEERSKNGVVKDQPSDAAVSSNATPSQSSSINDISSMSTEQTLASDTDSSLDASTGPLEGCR

Compound `CN(C(=O)CN1CCOCC1)c1ccc2sc3c(-c4cccc5c(=O)cc(N6CC7CCC(C6)O7)oc45)cccc3c2c1` [NU5455] has an inhibition at 1 µM of 2.8%.
